{
  "source": "patent US20190330167A1",
  "about": "“ACTIVATORS OF HIV LATENCY” (priority 2016, published 2019)",
  "tested_on": "latent HIV in resting memory CD4+ T cells isolated by leukapheresis from HIV+ donors on antiretroviral therapy",
  "assay_type": "cell-based, HIV-1",
  "settings": "72 hrs",
  "from_the_text": "FIG. 41a. […] Resting memory CD4+ T cells isolated by leukapheresis from HIV+ donors on antiretroviral therapy were reactivated for 72 hrs using known LRAs including vorinostat (Vor) also known as suberanilohydroxamic acid, another hydroxamic acid panobinostat (Pan), and the depsipeptide Romidepsin (Rom) that are all HDACi, together with JQ1 (+) which is a thienotriazolodiazepine known to inhibit the BET family of bromodomain proteins including BRD2, BRD3, and BRD4, and compared with compounds according to the present invention DP#6 (Compound 41), DP#14 (Compound 7), and DP#16 (Compound 64).\nFIG. 41c. […] Resting memory CD4+ T cells isolated by leukapheresis from HIV+ donors on antiretroviral therapy were reactivated for 72 hrs using known (vorinostat, Vor; panobinostat, Pan; romidepsin, Rom; and JQ1 (+)) and compounds according to the present invention (DP#6 (Compound 41), DP#14 (Compound 7), and DP#16 (Compound 64)).\nFIG. 42c. […] Resting memory CD4+ T cells isolated by leukapheresis from HIV+ donors on antiretroviral therapy were reactivated for 72 hrs using known (JQ1 (+)) and compounds according to the present invention (DP#14 (Compound 7)) alone and in combination, and HIV-1 RNA detected through qPCR.\nTotal peripheral blood mononuclear cells (PBMC) were stored frozen in liquid nitrogen and prior to use, vials of frozen cells (0.5×10^8 PBMCs/vial or 1×10^8 PBMCs/vial) were quick thawed in a 42° C. water bath. Cells were promptly transferred to a 15 mL tube with 5 mL FBS dropwise then, then 6 mL of RF10 was added. Cells were pelleted at 300 g for 10 min at room temperature. Following aspiration, the cells were resuspended in RF10, pooled into a 50 mL tube which was topped up with RF10. PBMC were pelleted again at 300 g for 10 min at room temperature. Following aspiration, the cells were resuspended in PBS(−/−) and counted. CD4+ T cells were then isolated from 4×10^8 PBMCs that were pelleted and resuspended in PBS(−/−) at 1×10^7 cells/40 μL. 10 μL of CD4+ T cell Biotin-Antibody cocktail (Miltenyi Biotec) for every 1×10^7 cells was added and the mix refrigerated for 5 min. 30 μL of PBS(−/−) for every 1×10^7 cells was added, and 20 μL of the CD4+ T cell MicroBeads for every 1×10^7 cells was added and the mix refrigerated for 10 min. Unlabelled CD4+ T cells were then isolated by negative selection using magnetic separation. CD4+ T cells were then counted before being diluted to 4×10^6 cells/500 μL in RF10 for each condition and seeded into a 48 well plate.\nLatent HIV was reactivated in the presence of the HIV integrase inhibitor Raltagravir (Ral) to prevent any further rounds of infection. Ral was made to [2 μM] in RF10+IL-2 (2 U/mL), and used to make 1 mL preparation of each drug up at [×2]. 500 μL of the [×2 Ral/IL-2/drug] was then added to the appropriate wells containing cells. Cells were transported to PC3 and incubated for 72 hrs.\nFollowing reactivation, 800 μL of cell supernatant was transferred to labeled 1.5 mL screwcap tubes, pelletted at 800 g for 10 min then transferred to a second set of tubes and frozen for possible use at a later date. 800 μL of PBS(−/−) was added to each well to mix the cells and 50 μL of cells transferred to another set of tubes for live/dead staining and flow cytometry. Cells were pelleted at 400 g for 10 min, the media aspirated and cells resuspended in 100 μL of a [×1] APC-cy7 live/dead stain (Life technologies).",
  "note": "Like-named read-outs stand apart in the source and are kept apart here.",
  "data": [
    {"smiles": "O=C(CCCOc1ccccc1)Nc1ncc(Br)s1", "note": "[Compound 7]", "values": [
      {"measurement": "induction of HIV-1 gene expression, % of the normalized value", "setting": "at 5 μM, normalized between unstimulated baseline and PMA as 100%", "value": 24, "unit": "%"},
      {"measurement": "induction of HIV-1 gene expression, % of the normalized value", "setting": "normalized between unstimulated baseline and PMA positive control as 100%, concentration not given", "value": 24, "unit": "%"}
    ]}
  ]
}
